Measurements as given in patent US20190029252A1, “Use of Herbicide-tolerant Protein” (BEIJING DABEINONG TECHNOLOGY GROUP CO., LTD., priority 2016, published 2019).

Legend:
Assay type in all cases: in vivo
[1] = system: At chloroplastic ALT-1-01 T1 plants; experiment: Herbicide tolerance of Arabidopsis thaliana T1 plants, sprayed, resistance classes counted 14 days after spraying; settings: sprayed at 1-fold field concentration
Text: (§1) T1 transformants were initially selected from the background of untransformed seeds using a glufosinate selection scheme. About 40000 T1 seeds were screened, and 380 T1 positive transformants (PAT gene) were identified with a transformation efficiency of about 0.95%. The plants that were transformed with the recombinant expression vector DBN100632 were Arabidopsis thaliana plants having an ALT-1-01 nucleotide sequence located in the cytoplasm introduced (At cytoplasmic ALT-1-01), and the plants that were transformed with the recombinant expression vector DBN100631 were Arabidopsis thaliana plants having an ALT-1-01 nucleotide sequence located in the chloroplast introduced (At chloroplastic ALT-1-01); the plants that were transformed with the recombinant expression vector DBN100634 were Arabidopsis thaliana plants having an ALT-2-01 nucleotide sequence located in the cytoplasm introduced (At cytoplasmic ALT-2-01), and the plants that were transformed with the recombinant expression vector DBN100633 were Arabidopsis thaliana plants having an ALT-2-01 nucleotide sequence located in the chloroplast introduced (At chloroplastic ALT-2-01); and the plants that were transformed with the recombinant expression vector DBN100636 were Arabidopsis thaliana plants having an ALT-3-01 nucleotide sequence located in the cytoplasm introduced (At cytoplasmic ALT-3-01), and the plants that were transformed with the recombinant expression vector DBN100635 were Arabidopsis thaliana plants having an ALT-3-01 nucleotide sequence located in the chloroplast introduced (At chloroplastic ALT-3-01).
(§2) Plants were counted for the resistance situations 14 days after spraying: those having a consistent growth status with the blank solvent (water) group after 14 days were classified as highly resistant plants, those having a bolting height less than ½ of that of the blank solvent (water) group after 14 days were classified as moderately resistant plants, those still not capable of bolting after 14 days were classified as poorly resistant plants, and those dead after 14 days were classified as non-resistant plants. Since each Arabidopsis thaliana T1 plant was an independent transformation event, a significant difference in individual T1 responses could be expected at a given dose.
as §2, with “situation” for “situations”

[2] = system: At chloroplastic ALT-2-01 T1 plants; experiment: as above; settings: sprayed at 1-fold field concentration
Text: as §1, §2
as §2, with “situation” for “situations”

[3] = system: At chloroplastic ALT-3-01 T1 plants; experiment: as above; settings: sprayed at 1-fold field concentration
Text: as §1, §2
as §2, with “situation” for “situations”

[4] = system: At cytoplasmic ALT-1-01 T1 plants; experiment: as above; settings: sprayed at 1-fold field concentration
Text: as §1, §2
as §2, with “situation” for “situations”

[5] = system: At cytoplasmic ALT-2-01 T1 plants; experiment: as above; settings: sprayed at 1-fold field concentration
Text: as §1, §2
as §2, with “situation” for “situations”

[6] = system: At cytoplasmic ALT-3-01 T1 plants; experiment: as above; settings: sprayed at 1-fold field concentration
Text: as §1, §2
as §2, with “situation” for “situations”

[7] = system: wild-type Arabidopsis thaliana plants; experiment: Herbicide tolerance of Arabidopsis thaliana plants, sprayed, resistance classes counted 14 days after spraying; settings: wild-type; sprayed at 1-fold field concentration; 14 days after spraying
Text: as §1, §2
as §2, with “situation” for “situations”

[8] = system: transformed Arabidopsis thaliana T1 plants (ALT-1, ALT-2 and ALT-3); experiment: Herbicide tolerance of transgenic Arabidopsis thaliana T1 plants, overall conclusion; settings: all transformed Arabidopsis thaliana T1 plants; 1-fold field concentration
Text: as §2
as §2, with “situation” for “situations”

[9] = system: Gm chloroplastic ALT-1-01 soybean plants; experiment: Glyphosate tolerance of soybean plants, herbicide damage rate; settings: 840 g ae/ha (1-fold field concentration), 14 DAT
Text: (§3) The herbicide tolerance effects of Gm cytoplasmic ALT-1-01 soybean plants, Gm chloroplastic ALT-1-01 soybean plants, Gm cytoplasmic ALT-2-01 soybean plants, Gm chloroplastic ALT-2-01 soybean plants, Gm cytoplasmic ALT-3-01 soybean plants, Gm chloroplastic ALT-3-01 soybean plants and wild-type soybean plants on glyphosate were detected (at seedling stage), respectively.
(§4) 2 strains from Gm cytoplasmic ALT-1-01 soybean plants, Gm chloroplastic ALT-1-01 soybean plants, Gm cytoplasmic ALT-2-01 soybean plants, Gm chloroplastic ALT-2-01 soybean plants, Gm cytoplasmic ALT-3-01 soybean plants, Gm chloroplastic ALT-3-01 soybean plants and wild-type soybean plants were respectively taken each, and 10-15 plants were selected from each strain and tested. The plants above were sprayed with glyphosate (840 g ae/ha, 1-fold field concentration) and a blank solvent (water). The herbicide damage rate was measured for each plant according to the phytotoxicity symptoms 14 days after spraying (14 DAT): herbicide damage rate (%)=Σ(number of damaged plants at the same level× level number)/(total number of plants×highest level).

[10] = system: Gm chloroplastic ALT-2-01 soybean plants; experiment: as above; settings: 840 g ae/ha (1-fold field concentration), 14 DAT
Text: as §3, §4

[11] = system: Gm chloroplastic ALT-3-01 soybean plants; experiment: as above; settings: 840 g ae/ha (1-fold field concentration), 14 DAT
Text: as §3, §4

[12] = system: Gm cytoplasmic ALT-1-01 soybean plants; experiment: as above; settings: 840 g ae/ha (1-fold field concentration), 14 DAT
Text: as §3, §4

[13] = system: Gm cytoplasmic ALT-2-01 soybean plants; experiment: as above; settings: 840 g ae/ha (1-fold field concentration), 14 DAT
Text: as §3, §4

[14] = system: Gm cytoplasmic ALT-3-01 soybean plants; experiment: as above; settings: 840 g ae/ha (1-fold field concentration), 14 DAT
Text: as §3, §4

[15] = system: wild-type soybean plants (CK1); experiment: as above; settings: 840 g ae/ha (1-fold field concentration), 14 DAT
Text: as §3, §4

Row | Structure (SMILES) | Highly resistant (number of plants) [1] | Moderately resistant (number of plants) [1] | Non-resistant (number of plants) [1] | Poorly resistant (number of plants) [1] | Highly resistant (number of plants) [2] | Moderately resistant (number of plants) [2] | Non-resistant (number of plants) [2] | Poorly resistant (number of plants) [2] | Highly resistant (number of plants) [3] | Moderately resistant (number of plants) [3] | Non-resistant (number of plants) [3] | Poorly resistant (number of plants) [3] | Highly resistant (number of plants) [4] | Moderately resistant (number of plants) [4] | Non-resistant (number of plants) [4] | Poorly resistant (number of plants) [4] | Highly resistant (number of plants) [5] | Moderately resistant (number of plants) [5] | Non-resistant (number of plants) [5] | Poorly resistant (number of plants) [5] | other results
1 | COC(=O)c1ccc(CNS(C)(=O)=O)cc1S(=O)(=O)NC(=O)Nc1nc(OC)cc(OC)n1 [mesosulfuron] | 0 | 0 | 32 | 0 | 0 | 0 | 30 | 0 | 0 | 0 | 32 | 0 | 0 | 0 | 29 | 0 | 0 | 0 | 32 | 0 | Highly resistant (number of plants) [6]: 0; Moderately resistant (number of plants) [6]: 0; Non-resistant (number of plants) [6]: 30; Poorly resistant (number of plants) [6]: 0; Highly resistant (number of plants) [7]: 0; Moderately resistant (number of plants) [7]: 0; Non-resistant (number of plants) [7]: 28; Poorly resistant (number of plants) [7]: 0; ability of the transformed plants to degrade the herbicide (in words) [8]: did not exhibit the ability to degrade
2 | Cc1cc(C)nc(NC(=O)NS(=O)(=O)c2ccccc2C(=O)OC2COC2)n1 [oxasulfuron] | 0 | 0 | 30 | 0 | 0 | 0 | 30 | 0 | 0 | 0 | 31 | 0 | 0 | 0 | 28 | 0 | 0 | 0 | 30 | 0 | Highly resistant (number of plants) [6]: 0; Moderately resistant (number of plants) [6]: 0; Non-resistant (number of plants) [6]: 30; Poorly resistant (number of plants) [6]: 0; Highly resistant (number of plants) [7]: 0; Moderately resistant (number of plants) [7]: 0; Non-resistant (number of plants) [7]: 28; Poorly resistant (number of plants) [7]: 0; ability of the transformed plants to degrade the herbicide (in words) [8]: did not exhibit the ability to degrade
3 | O=C(O)CNCP(=O)(O)O [glyphosate, N-phosphonomethylglycine] |  |  |  |  |  |  |  |  |  |  |  |  |  |  |  |  |  |  |  |  | glyphosate herbicide damage rate [9]: ~0%; glyphosate herbicide damage rate [10]: ~0%; glyphosate herbicide damage rate [11]: ~0%; glyphosate herbicide damage rate [12]: ~0%; glyphosate herbicide damage rate [13]: ~0%; glyphosate herbicide damage rate [14]: ~0%; glyphosate herbicide damage rate [15]: not less than 90%
4 | COC(=O)c1ccc(I)cc1S(=O)(=O)NC(=O)Nc1nc(C)nc(OC)n1 [iodosulfuron-methyl] | 0 | 0 | 30 | 0 | 0 | 0 | 31 | 0 | 0 | 0 | 32 | 0 | 0 | 0 | 29 | 0 | 0 | 0 | 30 | 0 | Highly resistant (number of plants) [6]: 0; Moderately resistant (number of plants) [6]: 0; Non-resistant (number of plants) [6]: 30; Poorly resistant (number of plants) [6]: 0; Highly resistant (number of plants) [7]: 0; Moderately resistant (number of plants) [7]: 0; Non-resistant (number of plants) [7]: 29; Poorly resistant (number of plants) [7]: 0; ability of the transformed plants to degrade the herbicide (in words) [8]: did not exhibit the ability to degrade
